Data: patent publication US20210302113A1, “FLUORINATED DIAMINOOLEFINS AND METHODS OF USING THE SAME” (3M INNOVATIVE PROPERTIES COMPANY, priority 2017, published 2021)

Assay: Thermal stability with absorbents, GC-FID purity after stirring at 60° C. for 24 h
Format: physicochemical
Experimental: The thermal stability was measured by charging a weighed amount of (E)-1,4-bis(perfluoromorpholino)but-2-ene (having a purity of 98.8%) into glass vials and then adding a weighed amount of absorbent. (The purity of the composition was measured by analyzing the sample using GC-FID and comparing the area of the peak of interest to the total peak areas in the chromatogram.) The mixture was stirred at 60° C. for 24 h and then analyzed by GC-FID. The percent purity of the treated sample was determined by the peak area of the (E)-1,4-bis(perfluoromorpholino)but-2-ene peak versus the total peak areas in the GC-FID chromatogram.

## FC1(F)OC(F)(F)C(F)(F)N(C/C=C/CN2C(F)(F)C(F)(F)OC(F)(F)C2(F)F)C1(F)F [(E)-1,4-bis(perfluoromorpholino)but-2-ene]
4 Angstrom Molecular Sieves, starting purity 98.8%
  GC Purity: 98.8%
Activated Carbon, starting purity 98.8%
  GC Purity: 98.8%
Basic Alumina, starting purity 98.8%
  GC Purity: 99.5%
K2CO3, starting purity 98.8%
  GC Purity: 98.9%
No Adsorbent, starting purity 98.8%
  GC Purity: 98.8%
Silica Gel, starting purity 98.8%
  GC Purity: 98.8%
